Test results as given in US12102646B2, “Compositions for the treatment of fibrosis and inflammation” (Viking Therapeutics, Inc., priority 2018, dated 2024).

Assays:
Type in all cases: in vivo
DIO-NASH mice = assay: DIO-NASH mice, 8 weeks oral once-daily treatment, liver fibrosis read-outs (Example 1); conditions: for proportion of animals with reduction in fibrosis score post-treatment: compared with mock treated animals; for liver Picro-Sirius Red (PSR) staining (collagen 1 and 3): terminal liver sections, morphometry, Compound 1 vs mock, Compound 2 vs control- or mock-treated
Description: DIO-NASH mice were acclimatized for 3 weeks, with pre-treatment liver biopsy samples collected prior to acclimatization. Mice were randomly assigned to one of five dosing groups, with 12 mice per group. Assigned dosages were: Compound 2 (low): 3 mg/kg; Compound 2 (high): 10 mg/kg; Compound 1: 10 mg/kg; and Elafibranor (30 mg/kg). One group was mock treated with vehicle only as a control. Dosage forms were administered orally once per day. After 8 weeks, animals were sacrificed and liver samples were taken. Liver samples were assayed for total liver hydroxyproline, and subjected to immunohistochemical observation for fibrosis stage as well as the extent of ColaI (Collagen Type Ia) staining. […] Since hydroxyproline is a significant component of collagen, and collagen is the most significant source of hydroxyproline in animal tissues, levels of hydroxyproline provide a reliable proxy for the presence of collagen in a sample.
Terminal liver biopsy samples were also subjected to histochemical staining and immunohistochemical staining. Representative images of liver stained with Picro-Sirius Red (to visualize collagen I and III deposition, red stain) at the end of the treatment period following 8 weeks of treatment with vehicle, low dose Compound 2, high dose Compound 2, Compound 1, or elafibranor are shown in FIG. 2. […] Representative images of liver stained with anti-type I collagen (col1a1) (Southern Biotech, Cat. 131001) at the end of the treatment period following 8 weeks of treatment with vehicle, low dose Compound 2, high dose Compound 2, Compound 1, or elafibranor are shown in FIG. 3. The extent of Col1A1 content was calculated as the total liver Col1A1 staining in terminal liver biopsy samples.
Fibrosis scores were also calculated based on observation of terminal liver biopsy samples.

[1] = tested on: diet-induced NASH mouse model; assay: diet-induced NASH mouse model, 8 weeks dosing, liver/plasma biochemistry and histology (Example 6); conditions: for total liver galectin-3: compared to vehicle, 8 weeks dosing, FIG. 9
Description: (§1) Compound 2 was evaluated in a diet-induced NASH mouse model (See, e.g., Hansen, H. et al., Drug Discovery Today 22(17):1701-1718 (2017) which is hereby incorporated by reference with respect to its disclosure of diet-induced, genetic, chemical, and other NASH mouse models). […] Animals were biopsied pre-study, and only animals with NASH and fibrosis were selected for study. Selected animals were acclimatized and randomized, with experimental groups of 11-12 animals per cohort receiving oral dosing of compound 2 according to the following schedules: Daily dosing for 8 weeks; or daily dosing for week 0-1 followed by weekly dosing for weeks 2-8. At week 8, animals were sacrificed and tissues analyzed. Plasma enzymes (P-ALT (alanine aminotransferase) and P-AST (aspartate aminotransferase)), total plasma triglycerides, and total plasma cholesterol were measured, and terminal necropsy of each liver was carried out, assaying total liver biochemistry including total liver triglycerides, and total liver cholesterol, as well as histological evaluation of NAFLD activity score (done pre- and post-treatment), fibrosis stage (also done pre- and post-treatment), steatosis, Col1a1 level, and galactin-3 level. Tissue samples were preserved for characterization using RNAseq; RNAseq was used to determine expression levels for genes showing differential expression in compound 2-treated vs. vehicle treated animals and/or genes known to be implicated in fibrosis. Additionally, expression levels for genes known to be implicated in inflammation, such as ANXA2, were determined in compound 2-treated vs. vehicle treated animals.

[2] = tested on: pro-fibrotic and pro-inflammatory genes (Col1a1, Col3a1, ACTA2, LGALS1, ENPP2, ANXA2); assay: RNAseq liver gene expression in diet-induced NASH mouse model (Example 6); parameters: concentration or dose not given beside the values
Description: as §1

[3] = tested on: Dunkin-Hartley guinea pigs with pulmonary fibrosis; assay: bleomycin-induced pulmonary fibrosis in guinea pigs (Example 2); conditions: lungs; relative to levels prior to administration; 6-10 weeks
Description: Pulmonary fibrosis is induced in healthy male Dunkin-Hartley guinea pigs by administering bleomycin intratracheally. Control subjects are developed by intratracheal administration of saline solution. After the establishment of pulmonary fibrosis in the bleomycin treated animals, test articles comprising any one of Compounds 1-4, or any other compound disclosed herein, are administered to each subject as appropriate for its formulation, daily or as appropriate, for 6-10 weeks. Unilateral lung biopsies are taken prior to the first administration of the test articles and again after sacrifice following the last administration of the test articles. Biopsy samples are analyzed as described in Example I, with the addition of immunohistochemical staining for type III collagen. Lungs from animals treated with the compounds disclosed herein, especially those animals treated with Compound 2, show reduced levels of hydroxyproline, decreased Collagen III staining, and decreased fibrosis score relative to the levels shown prior to the administration of the test articles. Mock treated animals show little or no reduction in fibrosis, hydroxyproline content, or Collagen III content.

[4] = tested on: nude mice with palmar fascia fibrosis; assay: palmar fascia fibrosis in nude mice (second Example 2); conditions: relative to levels prior to administration, 6-10 weeks
From the text: Palmar fascia fibrosis is induced in nude mice by introducing fibroblasts from fibrotic cords of Dupuytren's disease patients as described in Stish, L. et al., BMC Musculoskelet. Disord. 16: 138-148 (2015) which is hereby incorporated by reference with respect to its description of the establishment of an animal model system for the study of palmar fascia fibrosis. After the establishment of palmar fascia fibrosis in the fibroblast treated animals, test articles comprising any one of Compounds 1-4, or any other compound disclosed herein, are administered to each subject as appropriate for its formulation, daily or as appropriate, for 6-10 weeks. Unilateral forepaw biopsies are taken prior to the first administration of the test articles and again after sacrifice following the last administration of the test articles. Biopsy samples are analyzed as described in Example I, with the addition of immunohistochemical staining for type III collagen. Palmar fascia from animals treated with the compounds disclosed herein, especially those animals treated with Compound 2, show reduced levels of hydroxyproline, decreased Collagen III staining, and decreased fibrosis score relative to the levels shown prior to the administration of the test articles. Mock treated animals show little or no reduction in fibrosis, hydroxyproline content, or Collagen III content.

[5] = tested on: Sprague-Dawley Rats or C57BL mice with hypertrophic skin lesions; assay: hypertrophic skin lesions in rats or mice (Example 3); conditions: injection site skin samples; relative to levels prior to administration; 6-10 weeks
From the text: Hypertrophic skin lesions are induced in Sprague-Dawley Rats by subcutaneous injection of capsaicin as described in Wallengren, J. et al., Skin Pharm. Appl. Skin Physiol. 15(3):154-165(2002), which is hereby incorporated by reference with respect to its description of the induction of hypertrophic skin lesions in rats; or in C57BL or other appropriate strain mice by subcutaneous administration of CCl4 and/or bleomycin, as described in Alonso-Merino et al., Proc. Nat. Acad. Sci. 113(24):E3451-60 (2016), which is incorporated herein for its disclosure of the induction of fibrotic skin lesions in mice. After the establishment of hypertrophic skin lesions in the capsaicin, CCl4 and/or bleomycin treated animals, test articles comprising any one of Compounds 1-4, or any other compound disclosed herein, are administered to each subject animal as appropriate for its formulation, daily or as appropriate, for 6-10 weeks. Skin biopsies from the injection site are taken prior to the first administration of the test articles and again after sacrifice following the last administration of the test articles. Biopsy samples are analyzed as described in Example I, with the addition of immunohistochemical staining for type III collagen. Injection site skin samples from animals treated with the compounds disclosed herein, especially those animals treated with Compound 2, show reduced levels of hydroxyproline, decreased Collagen III staining, and decreased fibrosis score relative to the levels shown prior to the administration of the test articles. Mock treated animals show little or no reduction in fibrosis, hydroxyproline content, or Collagen III content.

[6] = tested on: Agl-/- mice that manifest GSD-3-like hepatic symptoms; assay: GSD-3-like Agl-/- mice (Example 4); conditions: liver samples; relative to levels prior to administration; 6-10 weeks
Description: (§2) Glucose-6-phosphatase-α deficient mice that manifest GSD-3-like hepatic symptoms, including hypercholesterolemia and hyperlipidemia (Agl−/−, see e.g. Liu, K. M. et al., Mol. Genet. Metabol. 111(4):467-76 (2014)) are treated with test articles comprising any one of Compounds 1-4, or any other compound disclosed herein, administered to each subject as appropriate for its formulation, daily or as appropriate, for 6-10 weeks. Liver biopsies are taken prior to the first administration of the test articles and again after sacrifice following the last administration of the test articles. Biopsy samples are analyzed as described in Example I. Liver samples from animals treated with the compounds disclosed herein, especially those animals treated with Compound 2, show reduced levels of hydroxyproline, decreased Collagen I staining, and decreased fibrosis score relative to the levels shown prior to the administration of the test articles. Mock treated animals show little or no reduction in fibrosis, hydroxyproline content, or Collagen I content.

[7] = tested on: Phosphorylase kinase deficient mice (PhKc-/-); assay: GSD-8/9-like PhKc-/- mice (Example 5); conditions: liver samples; relative to levels prior to administration; 6-10 weeks
Description: as §2, with “Phosphorylase kinase” for “Glucose-6-phosphatase-α”, “GSD-8/9-like” for “GSD-3-like”, “(PhKc−/−, see, e.g., Varsanyi,” for “(Agl−/−, see e.g. Liu, K.”, “Biochem.” for “Mol.”, “18(3-4):247-61 (1980)),” for “Metabol. 111(4):467-76 (2014))”

[8] = relative to pre-treatment samples, 8 weeks, FIG. 7
[9] = treatment groups relative to untreated controls, week 8, oral
[10] = post-treatment liver, 8 weeks, FIG. 8

With `Cc1cc(OCP(=O)(OCOC(=O)C(C)(C)C)OCOC(=O)C(C)(C)C)cc(C)c1Cc1ccc(O)c(Cc2ccccc2)c1` [Compound 1] the “proportion of animals with reduction in fibrosis score post-treatment” value (DIO-NASH mice; 8 weeks) was “higher”, the “liver Picro-Sirius Red (PSR) staining (collagen 1 and 3)” value (DIO-NASH mice; 8 weeks oral once per day) was “lower” and the “total liver galectin-3” value [1] was “reduction”. For the same molecule, the “ACTA2 Change versus Vehicle Control” value ([2]; 8-week dosing, fibrosis marker) was −30.5%, the “ENPP2 Change versus Vehicle Control” value ([2]; 8-week dosing, fibrosis marker) was −44.1% and the “LGALS1 Change versus Vehicle Control” value ([2]; 8-week dosing, fibrosis marker) was −35.1%.

With `Cc1cc(OCP2(=O)OCC[C@@H](c3cccc(Cl)c3)O2)cc(C)c1Cc1ccc(O)c(C(C)C)c1` (stereo partly shown) [Compound 2] the “animals showing increases in fibrosis score post-treatment” value (DIO-NASH mice; 8 weeks) was “No”, the “proportion of animals with reduction in fibrosis score post-treatment” value (DIO-NASH mice; 8 weeks) was “higher” and the “total liver Col1A1 content” value (DIO-NASH mice; terminal liver biopsy, anti-type I collagen staining, vs control-treated or mock-treated animals, 8 weeks) was “lower”. The “liver Picro-Sirius Red (PSR) staining (collagen 1 and 3)” value (DIO-NASH mice; 8 weeks oral once per day) was “lower”, the “total liver hydroxyproline levels” value (DIO-NASH mice; vs control-treated (elafibranor) or mock-treated animals, 8 weeks oral once per day, Compound 2 3 and 10 mg/kg) was “lower” and the toxicity ([1]; 8 weeks oral dosing) was “No significant toxicity”. For the same molecule, the “total liver galectin-3” value [1] was “reduction”, the “reduction in fibrosis (fibrosis score)” value [1, 8] was 50.2% and the reduction in hydroxyproline [1, 8] was 46.3%. The “reduction in type 1 collagen deposition” value [1, 8] was 60.2%, the liver cholesterol [1, 9] was “Significant reductions” and the liver triglycerides [1, 9] was “Significant reductions”. For the same molecule, the NAS scores ([1]; week 8, oral) was “significant improvements”, the “total lipid content in the liver, reduction” value ([1]; week 8, oral, FIG. 6) was “approximately 80%” and the “ACTA2 Change versus Vehicle Control” value ([2]; 8-week dosing, fibrosis marker) was −37.0%. For the same molecule, the “Col1a1 Change versus Vehicle Control” value ([2]; 8-week dosing, fibrosis marker) was −36.3%, the “Col3a1 Change versus Vehicle Control” value ([2]; 8-week dosing, fibrosis marker) was −27.1% and the “ENPP2 Change versus Vehicle Control” value ([2]; 8-week dosing, fibrosis marker) was −56.3%. For the same molecule, the “LGALS1 Change versus Vehicle Control” value ([2]; 8-week dosing, fibrosis marker) was −64.7%, the “ANXA2 Change versus Vehicle Control” value ([2]; 8-week dosing, inflammatory marker) was −40.3% and the “expression of pro-inflammatory gene ANXA2 reduced by” value ([2]; post-treatment liver, 8 weeks) was 40.3%. The “expression of ACTA2 (αSMA) reduced by” value [2, 10] was 37%, the “expression of Col1a1 reduced by” value [2, 10] was 36.3% and the “expression of Col3a1 reduced by” value [2, 10] was 27.1%. The “expression of LGALS1 (Galectin 1) reduced by” value [2, 10] was 64.7%, the “Collagen III staining” value [3] was “decreased” and the fibrosis score [3] was “decreased”. The levels of hydroxyproline [3] was “reduced”, the “Collagen III staining” value [4] was “decreased” and the fibrosis score [4] was “decreased”. The levels of hydroxyproline [4] was “reduced”, the “Collagen III staining” value [5] was “decreased” and the fibrosis score [5] was “decreased”. The levels of hydroxyproline [5] was “reduced”, the “Collagen I staining” value [6] was “decreased” and the fibrosis score [6] was “decreased”. For the same molecule, the levels of hydroxyproline [6] was “reduced”, the “Collagen I staining” value [7] was “decreased” and the fibrosis score [7] was “decreased”. The levels of hydroxyproline [7] was “reduced”.
